Measured values reported in the kinase profiling compilation of Christmann-Franck et al. (2016).

Key:
Test in all cases: radiometric filter-binding kinase assay, Kinase HotSpot
Details in all cases: compound 0.5 µM; ATP 10 µM
ABL1 (human) = ABL1 (human) (UniProt P00519)
PRKACG (human) = PRKACG (human) (UniProt P22612)
ULK1 (human) = ULK1 (human) (UniProt O75385)
PRKCH (human) = PRKCH (human) (UniProt P24723)
IRAK4 (human) = IRAK4 (human) (UniProt Q9NWZ3)
MAPK11 (human) = MAPK11 (human) (UniProt Q15759)
CAMK2D (human) = CAMK2D (human) (UniProt Q13557)
PRKCI (human) = PRKCI (human) (UniProt P41743)
MYO3B (human) = MYO3B (human) (UniProt Q8WXR4)
Sequence of MYO3B (human) (Q8WXR4 whole entry, looked up): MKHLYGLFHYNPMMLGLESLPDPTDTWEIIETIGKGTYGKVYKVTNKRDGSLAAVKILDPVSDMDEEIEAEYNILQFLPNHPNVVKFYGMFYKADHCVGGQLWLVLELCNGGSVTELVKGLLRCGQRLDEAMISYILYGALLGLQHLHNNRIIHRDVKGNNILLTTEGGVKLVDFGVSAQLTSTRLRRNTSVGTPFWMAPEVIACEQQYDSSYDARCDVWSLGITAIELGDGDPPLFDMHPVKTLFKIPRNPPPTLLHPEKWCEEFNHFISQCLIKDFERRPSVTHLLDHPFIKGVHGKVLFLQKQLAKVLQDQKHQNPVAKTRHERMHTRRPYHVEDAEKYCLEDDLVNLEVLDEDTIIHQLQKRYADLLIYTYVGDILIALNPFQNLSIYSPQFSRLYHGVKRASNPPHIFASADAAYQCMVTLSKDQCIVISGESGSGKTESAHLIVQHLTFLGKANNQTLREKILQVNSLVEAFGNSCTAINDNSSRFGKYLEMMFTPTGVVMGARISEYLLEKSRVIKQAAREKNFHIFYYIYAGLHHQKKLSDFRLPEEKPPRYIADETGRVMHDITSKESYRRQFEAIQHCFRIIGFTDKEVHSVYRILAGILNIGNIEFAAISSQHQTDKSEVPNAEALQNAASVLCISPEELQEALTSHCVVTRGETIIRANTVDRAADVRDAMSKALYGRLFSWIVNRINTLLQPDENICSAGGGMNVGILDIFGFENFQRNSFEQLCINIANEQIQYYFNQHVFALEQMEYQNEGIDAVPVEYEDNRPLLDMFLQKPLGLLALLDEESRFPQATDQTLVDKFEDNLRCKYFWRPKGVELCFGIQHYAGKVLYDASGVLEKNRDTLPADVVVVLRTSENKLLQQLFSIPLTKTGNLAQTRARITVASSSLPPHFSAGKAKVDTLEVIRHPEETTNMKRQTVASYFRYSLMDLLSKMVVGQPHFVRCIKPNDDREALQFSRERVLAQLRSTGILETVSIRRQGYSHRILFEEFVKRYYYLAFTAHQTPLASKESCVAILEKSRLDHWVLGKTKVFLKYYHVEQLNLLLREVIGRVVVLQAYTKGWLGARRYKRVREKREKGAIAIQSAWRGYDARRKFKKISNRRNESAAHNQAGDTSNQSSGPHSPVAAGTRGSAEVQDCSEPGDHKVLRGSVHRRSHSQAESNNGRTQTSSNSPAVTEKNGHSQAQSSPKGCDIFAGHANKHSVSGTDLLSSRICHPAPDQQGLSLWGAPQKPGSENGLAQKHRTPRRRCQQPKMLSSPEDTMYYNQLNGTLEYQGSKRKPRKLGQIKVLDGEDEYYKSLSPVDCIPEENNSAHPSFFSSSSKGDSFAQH

RPS6KA4 KD2 (human) = RPS6KA4 KD2 (human) (UniProt O75676)
EPHA6 (human) = EPHA6 (human) (UniProt Q9UF33)
SRPK1 (human) = SRPK1 (human) (UniProt Q96SB4)
PBK (human) = PBK (human) (UniProt Q96KB5)
JAK2 JH1 JH2 (human) = JAK2 JH1 JH2 (human) (UniProt O60674)
JAK3 JH1 JH2 (human) = JAK3 JH1 JH2 (human) (UniProt P52333)
BRAF (human) = BRAF (human) (UniProt P15056)
MAPK12 (human) = MAPK12 (human) (UniProt P53778)
Sequence of MAPK12 (human) (P53778 whole entry, looked up): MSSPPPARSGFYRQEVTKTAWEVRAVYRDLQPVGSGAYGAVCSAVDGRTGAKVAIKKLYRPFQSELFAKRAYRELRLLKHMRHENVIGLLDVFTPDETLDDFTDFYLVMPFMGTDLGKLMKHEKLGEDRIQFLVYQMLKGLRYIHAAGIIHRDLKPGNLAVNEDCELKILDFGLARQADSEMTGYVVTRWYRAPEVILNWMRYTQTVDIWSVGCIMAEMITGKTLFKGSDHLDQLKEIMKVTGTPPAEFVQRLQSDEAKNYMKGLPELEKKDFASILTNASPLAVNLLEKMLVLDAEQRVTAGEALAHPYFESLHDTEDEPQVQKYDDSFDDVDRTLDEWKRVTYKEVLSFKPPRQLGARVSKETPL

CHUK (human) = CHUK (human) (UniProt O15111)
RPS6KA2 KD1 KD2 (human) = RPS6KA2 KD1 KD2 (human) (UniProt Q15349)
OXSR1 (human) = OXSR1 (human) (UniProt O95747)
PRKD2 (human) = PRKD2 (human) (UniProt Q9BZL6)
EPHB1 (human) = EPHB1 (human) (UniProt P54762)
Sequence of EPHB1 (human) (P54762 whole entry, looked up): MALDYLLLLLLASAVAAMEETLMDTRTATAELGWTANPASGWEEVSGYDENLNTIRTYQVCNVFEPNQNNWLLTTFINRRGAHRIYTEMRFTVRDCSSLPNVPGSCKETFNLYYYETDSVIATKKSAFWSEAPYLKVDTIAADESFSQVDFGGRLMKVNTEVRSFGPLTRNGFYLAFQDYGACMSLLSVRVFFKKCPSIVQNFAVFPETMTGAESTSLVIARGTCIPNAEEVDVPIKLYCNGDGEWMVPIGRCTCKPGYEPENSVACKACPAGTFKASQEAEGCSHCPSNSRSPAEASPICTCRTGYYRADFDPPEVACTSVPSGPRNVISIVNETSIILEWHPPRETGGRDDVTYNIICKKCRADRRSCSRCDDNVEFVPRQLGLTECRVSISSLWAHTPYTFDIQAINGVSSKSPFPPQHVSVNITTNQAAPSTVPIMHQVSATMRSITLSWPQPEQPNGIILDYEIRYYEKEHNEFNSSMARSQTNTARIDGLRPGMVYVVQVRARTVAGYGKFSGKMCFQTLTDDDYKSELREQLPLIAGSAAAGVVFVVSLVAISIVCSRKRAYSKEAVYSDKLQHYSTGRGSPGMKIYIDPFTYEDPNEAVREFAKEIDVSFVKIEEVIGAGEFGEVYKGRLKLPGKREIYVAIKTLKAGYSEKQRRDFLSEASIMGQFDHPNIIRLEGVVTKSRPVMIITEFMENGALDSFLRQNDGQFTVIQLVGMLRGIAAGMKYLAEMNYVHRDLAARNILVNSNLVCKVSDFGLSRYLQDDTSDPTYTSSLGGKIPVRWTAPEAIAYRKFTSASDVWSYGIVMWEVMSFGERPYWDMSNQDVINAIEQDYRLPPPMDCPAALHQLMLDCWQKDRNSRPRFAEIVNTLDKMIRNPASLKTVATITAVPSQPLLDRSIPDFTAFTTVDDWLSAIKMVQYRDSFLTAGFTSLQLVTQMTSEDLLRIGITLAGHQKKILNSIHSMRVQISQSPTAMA

CSNK2A2 (human) = CSNK2A2 (human) (UniProt P19784)
Sequence of CSNK2A2 (human) (P19784 whole entry, looked up): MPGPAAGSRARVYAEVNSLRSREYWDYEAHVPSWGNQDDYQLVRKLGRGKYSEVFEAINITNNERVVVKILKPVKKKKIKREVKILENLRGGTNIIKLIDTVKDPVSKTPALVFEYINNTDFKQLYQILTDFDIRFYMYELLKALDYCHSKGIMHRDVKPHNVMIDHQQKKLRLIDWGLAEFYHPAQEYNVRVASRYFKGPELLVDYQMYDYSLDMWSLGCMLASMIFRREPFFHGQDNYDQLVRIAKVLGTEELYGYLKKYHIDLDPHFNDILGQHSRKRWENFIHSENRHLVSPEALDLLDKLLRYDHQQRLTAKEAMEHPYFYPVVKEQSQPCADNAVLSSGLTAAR

CDK5 CDK5R1 p25 (human) = CDK5 CDK5R1 p25 (human) (UniProt Q00535+Q15078)
PRKX (human) = PRKX (human) (UniProt P51817)
CSK (human) = CSK (human) (UniProt P41240)
MATK (human) = MATK (human) (UniProt P42679)
MAPK9 (human) = MAPK9 (human) (UniProt P45984)
CSNK1E (human) = CSNK1E (human) (UniProt P49674)
Sequence of CSNK1E (human) (P49674 whole entry, looked up): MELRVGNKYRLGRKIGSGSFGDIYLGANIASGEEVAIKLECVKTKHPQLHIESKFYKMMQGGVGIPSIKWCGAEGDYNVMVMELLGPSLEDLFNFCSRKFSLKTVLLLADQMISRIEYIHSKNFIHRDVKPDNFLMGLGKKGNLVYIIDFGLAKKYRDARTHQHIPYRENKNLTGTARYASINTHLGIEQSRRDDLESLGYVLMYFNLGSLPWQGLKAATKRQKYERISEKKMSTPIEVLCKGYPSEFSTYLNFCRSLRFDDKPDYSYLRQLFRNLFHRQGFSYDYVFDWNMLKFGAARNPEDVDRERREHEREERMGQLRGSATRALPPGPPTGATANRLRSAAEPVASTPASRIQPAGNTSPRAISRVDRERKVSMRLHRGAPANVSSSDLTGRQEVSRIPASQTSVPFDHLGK

MAPK8 (human) = MAPK8 (human) (UniProt P45983)
RPS6KA3 KD1 KD2 (human) = RPS6KA3 KD1 KD2 (human) (UniProt P51812)
ULK3 (human) = ULK3 (human) (UniProt Q6PHR2)
DYRK1B (human) = DYRK1B (human) (UniProt Q9Y463)
TLK2 (human) = TLK2 (human) (UniProt Q86UE8)
STK33 (human) = STK33 (human) (UniProt Q9BYT3)
STK38 (human) = STK38 (human) (UniProt Q15208)
Sequence of STK38 (human) (Q15208 whole entry, looked up): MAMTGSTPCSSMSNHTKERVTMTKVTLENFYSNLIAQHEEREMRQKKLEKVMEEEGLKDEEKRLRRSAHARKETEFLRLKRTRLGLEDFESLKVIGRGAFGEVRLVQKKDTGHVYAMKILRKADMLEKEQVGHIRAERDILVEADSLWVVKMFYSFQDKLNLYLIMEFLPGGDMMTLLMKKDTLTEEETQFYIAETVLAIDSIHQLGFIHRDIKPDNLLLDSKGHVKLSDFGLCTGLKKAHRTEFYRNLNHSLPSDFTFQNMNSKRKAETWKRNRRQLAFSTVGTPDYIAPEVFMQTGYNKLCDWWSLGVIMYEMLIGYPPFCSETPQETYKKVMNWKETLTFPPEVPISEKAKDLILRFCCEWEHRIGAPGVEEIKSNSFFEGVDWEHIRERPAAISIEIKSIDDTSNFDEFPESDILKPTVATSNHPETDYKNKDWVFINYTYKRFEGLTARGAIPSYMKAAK

PAK7 (human) = PAK7 (human) (UniProt Q9P286)
PKN2 (human) = PKN2 (human) (UniProt Q16513)
DYRK4 (human) = DYRK4 (human) (UniProt Q9NR20)
TAOK2 (human) = TAOK2 (human) (UniProt Q9UL54)

Sequence of ABL1 (human) (P00519 whole entry, looked up): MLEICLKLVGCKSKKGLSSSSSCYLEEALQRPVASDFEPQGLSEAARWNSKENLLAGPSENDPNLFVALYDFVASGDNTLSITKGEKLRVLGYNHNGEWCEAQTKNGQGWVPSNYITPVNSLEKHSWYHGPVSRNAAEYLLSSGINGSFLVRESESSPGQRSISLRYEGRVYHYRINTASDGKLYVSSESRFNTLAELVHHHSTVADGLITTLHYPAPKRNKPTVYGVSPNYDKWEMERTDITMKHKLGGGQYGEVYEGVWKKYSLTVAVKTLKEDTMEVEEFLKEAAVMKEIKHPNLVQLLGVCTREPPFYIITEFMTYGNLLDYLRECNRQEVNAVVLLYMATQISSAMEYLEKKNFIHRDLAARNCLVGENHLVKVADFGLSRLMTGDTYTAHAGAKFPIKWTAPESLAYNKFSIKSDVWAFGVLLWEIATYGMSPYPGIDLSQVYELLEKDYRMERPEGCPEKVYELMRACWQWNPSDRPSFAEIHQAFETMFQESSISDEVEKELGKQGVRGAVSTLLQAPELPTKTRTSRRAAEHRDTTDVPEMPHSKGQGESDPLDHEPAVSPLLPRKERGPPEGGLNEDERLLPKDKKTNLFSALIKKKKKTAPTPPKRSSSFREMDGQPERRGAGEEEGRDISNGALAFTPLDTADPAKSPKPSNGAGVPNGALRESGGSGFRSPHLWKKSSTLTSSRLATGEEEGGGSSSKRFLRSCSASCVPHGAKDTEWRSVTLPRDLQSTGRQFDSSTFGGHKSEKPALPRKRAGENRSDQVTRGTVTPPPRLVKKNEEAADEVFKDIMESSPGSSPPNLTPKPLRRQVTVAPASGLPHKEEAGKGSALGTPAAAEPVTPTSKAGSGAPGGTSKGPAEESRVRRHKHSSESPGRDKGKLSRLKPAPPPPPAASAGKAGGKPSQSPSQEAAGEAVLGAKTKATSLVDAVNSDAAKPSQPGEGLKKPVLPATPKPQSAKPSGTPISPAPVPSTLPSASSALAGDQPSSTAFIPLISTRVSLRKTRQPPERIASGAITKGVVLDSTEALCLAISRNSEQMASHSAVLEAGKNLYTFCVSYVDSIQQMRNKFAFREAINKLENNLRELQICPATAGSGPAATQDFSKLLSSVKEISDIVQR

Structure (SMILES) | residual activity (ABL1 (human)) [%] | residual activity (PRKACG (human)) [%] | residual activity (ULK1 (human)) [%] | residual activity (PRKCH (human)) [%] | residual activity (IRAK4 (human)) [%] | residual activity (MAPK11 (human)) [%] | residual activity (CAMK2D (human)) [%] | residual activity (PRKCI (human)) [%] | residual activity (MYO3B (human)) [%] | residual activity (RPS6KA4 KD2 (human)) [%] | residual activity (EPHA6 (human)) [%] | residual activity (SRPK1 (human)) [%] | residual activity (PBK (human)) [%] | residual activity (JAK2 JH1 JH2 (human)) [%] | residual activity (JAK3 JH1 JH2 (human)) [%] | residual activity (BRAF (human)) [%] | residual activity (MAPK12 (human)) [%] | residual activity (CHUK (human)) [%] | residual activity (RPS6KA2 KD1 KD2 (human)) [%] | residual activity (OXSR1 (human)) [%] | further results
O=C(CCCc1ccc(-c2ccccc2F)cc1)Nc1ccc(O)cc1 | 101 | 93.5 | 106 | 84 | 86.3 | 79.7 | 108 | 95.5 | 96.3 | 103 | 89.6 | 98.6 | 90.8 | 98.5 | 92.1 | 93 | 104 | 97.3 | 101 | 102 | residual activity (PRKD2 (human)): 97.6%; residual activity (EPHB1 (human)): 96.4%; residual activity (CSNK2A2 (human)): 78.7%; residual activity (CDK5 CDK5R1 p25 (human)): 94.6%; residual activity (PRKX (human)): 106%; residual activity (CSK (human)): 88%; residual activity (MATK (human)): 92.2%; residual activity (MAPK9 (human)): 106%; residual activity (CSNK1E (human)): 99.4%; residual activity (MAPK8 (human)): 103%; residual activity (RPS6KA3 KD1 KD2 (human)): 95.8%; residual activity (ULK3 (human)): 103%; residual activity (DYRK1B (human)): 108%; residual activity (TLK2 (human)): 84.1%; residual activity (STK33 (human)): 97%; residual activity (STK38 (human)): 109%; residual activity (PAK7 (human)): 90.3%; residual activity (PKN2 (human)): 89.8%; residual activity (DYRK4 (human)): 97.4%; residual activity (TAOK2 (human)): 98.4%
COc1cc2ncnc(N3CCN(C(=O)Nc4ccc(Oc5ccccc5)cc4)CC3)c2cc1OC | 97.4 | 103 | 110 | 86.1 | 83.5 | 99.6 | 70.9 | 105 | 95.4 | 96.2 | 89.6 | 97.5 | 85.8 | 99.3 | 107 | 92.6 | 94.7 | 96 | 86.1 | 119 | residual activity (PRKD2 (human)): 91.9%; residual activity (EPHB1 (human)): 94.3%; residual activity (CSNK2A2 (human)): 61.9%; residual activity (CDK5 CDK5R1 p25 (human)): 77.1%; residual activity (PRKX (human)): 99.3%; residual activity (CSK (human)): 81.3%; residual activity (MATK (human)): 96.8%; residual activity (MAPK9 (human)): 88.4%; residual activity (CSNK1E (human)): 94.6%; residual activity (MAPK8 (human)): 90.5%; residual activity (RPS6KA3 KD1 KD2 (human)): 115%; residual activity (ULK3 (human)): 100%; residual activity (DYRK1B (human)): 93.5%; residual activity (TLK2 (human)): 94.7%; residual activity (STK33 (human)): 94.7%; residual activity (STK38 (human)): 96.9%; residual activity (PAK7 (human)): 96.8%; residual activity (PKN2 (human)): 99.1%; residual activity (DYRK4 (human)): 79.8%; residual activity (TAOK2 (human)): 96.3%
CN(C)C[C@H]1CCn2c(c(C3=C(c4cn(C)c5ccccc45)C(=O)NC3=O)c3ccccc32)C1 | 98 | 108 | 98.9 | 7.84 | 107 | 109 | 82.4 | 36.2 | 87.9 | 33.3 | 100 | 103 | 101 | 98.6 | 89.4 | 95.2 | 102 | 103 | 3.57 | 98.4 | residual activity (PRKD2 (human)): 97.6%; residual activity (EPHB1 (human)): 106%; residual activity (CSNK2A2 (human)): 92.4%; residual activity (CDK5 CDK5R1 p25 (human)): 84.7%; residual activity (PRKX (human)): 97.8%; residual activity (CSK (human)): 104%; residual activity (MATK (human)): 95%; residual activity (MAPK9 (human)): 105%; residual activity (CSNK1E (human)): 99.7%; residual activity (MAPK8 (human)): 100%; residual activity (RPS6KA3 KD1 KD2 (human)): 1.81%; residual activity (ULK3 (human)): 88.9%; residual activity (DYRK1B (human)): 92.2%; residual activity (TLK2 (human)): 88.4%; residual activity (STK33 (human)): 94.8%; residual activity (STK38 (human)): 96.7%; residual activity (PAK7 (human)): 100%; residual activity (PKN2 (human)): 87%; residual activity (DYRK4 (human)): 98.9%; residual activity (TAOK2 (human)): 87.7%
